# Laboratory results as given in patent US8349791B2, “Polypeptides that bind membrane proteins” (The Trustees of the University of Pennsylvania, priority 2006, dated 2013).
# Square brackets hold non-standard residues; d marks the D form. Ends that are not written are not given here.
# Assays:
# [1] = test system: gel-filtered human platelets; test: Platelet aggregation, turbidometric; format: cell-based; conditions: gel-filtered human platelets
# Procedure: Platelet-rich plasma, prepared from human blood anti-coagulated with 0.1 volume of 0.13 M sodium citrate, was gel-filtered on Sepharose 2B (Amersham Biosciences, Piscataway, N.J.) using an elution buffer containing 137 mM NaCl, 2.7 mM KCl, 1 mM MgCl2, 5.6 mM glucose, 0.35 mg/ml bovine serum albumin, 3.3 mM NaH2PO4, and 4 mM HEPES (pH=7.4), as previously described. Jordan P et al. Nature 411, 909-917 (2001). Turbidometric measurements of platelet aggregation were performed in a Chrono-Log Lumi-Dual Aggregometer. Aliquots (0.4 ml) of the gel-filtered platelet suspension were supplemented with 200 μg/ml human fibrinogen (Enzyme Research Labs., South Bend, Ind.) and 1 mM CaCl2 (final concentrations) prior to adding platelet agonists. The polypeptide was added from a DMSO solution such that the final concentration of DMSO was no greater than 0.5%. All controls also had 0.5% DMSO in the buffer.
# [2] = biological target: T1, full-length αIIbβ3 integrin (Homo sapiens, UniProt P08514); test: Fluorescence anisotropy titration with full-length integrin; format: binding; conditions: N-octyl-β-D-glucopyranoside micelles, 64 nM labelled peptide, 25° C.
# T1 construct: The full-length integrin aIIbβ3 protein in buffer
# Procedure: The full-length integrin aIIbβ3 protein in buffer (7.9 mg/ml, 10 mM HEPES (pH=7.5), 60 mM N-octyl-β-D-glucopyranoside, 0.5 mM CaCl2, 0.02% NaN3) was prepared using the previously reported method. Weisel J W et al. J. Biol. Chem. 267, 16637-16643 (1992). Fluorescence polarization experiments were conducted on an ATF 105 spectrofluorometer (Aviv Biomedical, Inc., Lakewood, N.J.) using a 0.3 cm path length cuvette. Spectra were measured at 25° C. using 1.0 nm slit widths. Excitation at 408 nm was used for the coumarin-labeled polypeptide and the emission maximum at 433 nm was monitored. Anisotropy measurements were recorded upon titration of the integrin αIIbβ3 protein at varying concentrations into a polypeptide solution of 64 nM coum-anti-αIIb or coum-anti-αIIbmut. Data analysis was carried out according to previously described methods. See Yin H et al. J. Am. Chem. Soc. 127, 10191-96 (2005).
# [3] = test system: gel-filtered human platelets; conditions: cited from earlier work
Substance,platelet aggregation response [1],other results
KKIFGVLTFLFGYILGALITGAVYWFVQLLAKK [anti-αIIb′],highly active,
"coum-anti-αIIb: 7-hydroxycoumarin-3-carboxamide-labeled anti-αIIb, label attached via a linker to the N-terminus (KKAYVMLLPFFIGLLLGLIFGGAFWGPARHLKK; not fully specified (N-terminus, C-terminus); also: label attached via an unspecified linker)",,apparent Kdiss for αIIbβ3 [2]: 1.3±0.2×10^−5 mole fraction units
αIIb-TM: polypeptide spanning residues Trp968 to Lys989 of αIIb (WVLVGVLGGLLLLTILVLAMWK),,potency as activator of αIIbβ3 / inducer of platelet aggregation relative to anti-αIIb [3]: substantially less potent
RAWFALFLLIFLGFLLGVATLLVQY ([dR][dA][dW][dF][dA][dL][dF][dL][dL][dI][dF][dL]G[dF][dL][dL]G[dV][dA][dT][dL][dL][dV][dQ][dY]) [d-anti-αIIb],aggregation of gel-filtered human platelets was induced by increasing concentrations,
